Measured values taken from a melting point compilation (Tetko et al.; mined from patent text by program, amines drawn as free bases though some values may be those of a salt).

Point of comparison: `Cc1cc(C(N)=O)ncc1C(c1c(F)ccc(F)c1F)S(=O)(=O)CCC(F)F` (stereo not drawn), melting point 192 °C. Against it:
- CCCc1c(OCCCCCOc2ccc3c(c2CCC)OC(C(=O)OC)CC3)ccc(C(C)=O)c1O (stereo not drawn) — lower, 57 to 58 °C
- COc1cc(NC(=O)Nc2ccc3c(c2)CCN(C(=O)Nc2ccc(OCC(O)CO)cc2Cl)C3)cc(OC)c1 (stereo not drawn) — lower, 108 to 110 °C
- COc1ccc(-c2ccc(-n3nnnc3C(F)(F)F)cc2)cc1C=O — lower, 186 to 187 °C
- CN1C(C)(C)CC(Nc2c([O-])[c+](NC3CC(C)(C)N(C)C(C)(C)C3)[c+]2[O-])CC1(C)C — higher, > 340 °C
- CS(=O)(=O)Nc1cccc(Nc2nc(NCCN3CCOCC3)c3nc[nH]c3n2)c1 — higher, 233 to 237 °C
- O=c1c(Cc2cccnc2)cc2cccnc2n1-c1cccc([N+](=O)[O-])c1 — higher, 226 to 227 °C
- NS(=O)(=O)c1ccc2c(c1)CCO2 — lower, 163 to 164 °C
- CCCCCCCCn1nnnc1I — lower, 40 °C
- CN(C(=O)c1ccc(Cn2cnc3c(Cl)nc(Cl)nc32)cc1)C1CCCCC1 — lower, 134 to 136 °C
- CCC(C(=O)O)c1ccc2c(c1)Cc1ccccc1S2 (stereo not drawn) — lower, 74 to 77 °C
- CCOC(=O)COc1ccc(NC(=O)c2csc(NC(=N)N)n2)cc1 — higher, 206 °C
- COc1ccc(C2(O)C(=O)N(Cc3ccc(Cl)cc3)c3ccccc32)cn1 (stereo not drawn) — lower, 182 to 184 °C
- COC(=O)CCc1cc(C(C)(C)C)c(OP(Cl)c2ccccc2)c(C(C)(C)C)c1 (stereo not drawn) — lower, 86 to 88 °C
- C/C=C(\C(=O)N(CC)CC)c1cc(OC)c(O)c2c(Cc3ccccc3)cccc12 — lower, 86 to 87 °C
- O=C(c1ccccc1)c1cnc2c(n1)CCCC2 — lower, 61.5 to 63.5 °C
- CN(C)Cc1cc2ccc(-c3nnc(CSCCOc4ccccc4)o3)cc2n1S(C)(=O)=O — lower, 127 to 130 °C
- CN(C(CCn1c(=O)cc(-c2ccccc2)[nH]c1=O)C(=O)NO)S(=O)(=O)c1ccc(Oc2ccccc2)cc1 (stereo not drawn) — lower, 179 to 181 °C
- O=Cc1ccc(O)cn1 — lower, 134 to 135 °C
- COC(=O)c1c(SCc2ccccc2)n[nH]c1C — lower, 109 to 110 °C
- CN1CCN(c2ccc([N+](=O)[O-])c(N)c2)CC1 — lower, 109 to 110 °C
- CSc1ccc(-c2cc(-c3nc4ccccc4c(=O)n3-c3cccc(C)c3)sc2N2CCOCC2)cc1 — higher, 220 to 221 °C
- Cc1c(N)cc2c(c1C)OC(C)(C)C2=O — lower, 149 to 150 °C
- COC(=O)c1ncoc1CCNC(=O)OCc1ccccc1 — lower, 68 to 70 °C
- Cn1c(=O)c2c(Cl)cccc2n2cnc(C(=O)n3ccnc3)c12 — higher, 242 to 243 °C
- CCOc1ccc(S(=O)(=O)N(CC(=O)NN=C2C(=O)Nc3ccc([N+](=O)[O-])cc32)c2ccccc2)cc1 — higher, 252 to 253 °C
- CC(C)C[C@H](NC(=O)OCc1ccccc1)C(=O)N[C@@H](Cc1ccccc1)C(=O)CSCc1ccc(Cl)s1 — lower, 105 to 107 °C
- CC(C)c1[nH]c(C(=O)Nc2ccc(C(=O)O)cc2)c(C(C)C)c1C(C)C — higher, > 300 °C
- O=C1c2ccccc2C(=O)N1CC(=O)N1c2ccccc2N(Cc2ccccc2)C[C@@H]2CCC[C@H]21 (relative stereo) — higher, 232 to 234 °C
- COC(=O)CN(C(=O)OC)C1CN(C(=O)Nc2ccc(C(F)(F)F)cc2)N=C1c1ccc(Cl)cc1 (stereo not drawn) — higher, 198 to 200 °C
- CCCCCCCN(Cc1ccc(CCCCCC)cc1)C(Nc1ccc(C(F)(F)F)cc1)=C1C(=O)COC1=O — lower, 94 to 98 °C
- COc1ccc(CNc2ccccc2C(=O)Nc2ccc(Br)c(C(F)(F)F)c2)cn1 — lower, 101 to 103 °C
- COC(=O)CCn1cc(Cc2cccnc2)c2cc([N+](=O)[O-])ccc21 — lower, 101 to 102 °C
- O=c1[nH]nccc1-c1ccccc1OC(F)(F)C(F)F — lower, 178 °C
- O=C(COc1ccc(Cl)cc1)c1ccccc1 — lower, 81 to 86 °C
- CC(=O)Nc1ccc([N+](=O)[O-])cc1OCC1CO1 (stereo not drawn) — lower, 164 °C
- c1ccc2[nH]c(-c3cc[nH]n3)nc2c1 — higher, 335 to 338 °C
- COc1cc2c(cc1OC)C(COCCN1CCCCC1)OCCC2 (stereo not drawn) — lower, 124 °C
